{"source": "patent US20110039762A1", "about": "“TARGETED ANTIMICROBIAL MOIETIES” (C3 JIAN, INC., priority 2009, published 2011)", "note": "Entries after “also recorded” stand apart in the source; their conditions may differ."}
{"tested_on": "microorganisms (e.g., bacteria, yeasts, fungi)", "experiment": "Targeting peptide binding to target microorganisms (Table 3)", "conditions": "microorganism(s) the targeting peptide binds; peptide binding conducted in aqueous buffers varied by peptide solubility, preferably 1x PBS"}
{"substance": "PF-505 (GYTKDPGTGI; Peptide with targeting and/or antimicrobial activity)", "Target(s)": "S. mutans"}
{"substance": "PF-506 (SGRGFALIVVLFILLIIVGAACIR; Peptide with targeting and/or antimicrobial activity)", "Target(s)": "S. mutans; also recorded: E. coli"}
{"substance": "PF-507 (LALSIANLFKKKA; Peptide with targeting and/or antimicrobial activity)", "Target(s)": "S. mutans; also recorded: E. coli"}
{"substance": "PF-508 (VSTFGKVVKVVDEK; Peptide with targeting and/or antimicrobial activity)", "Target(s)": "S. mutans"}
{"substance": "PF-509 (EAKVQAKGEQIACNNY; Peptide with targeting and/or antimicrobial activity)", "Target(s)": "S. mutans; also recorded: B. subtilis; also recorded: E. coli"}
{"substance": "PF-510 (WYLYKKQSNQNDRGIPK; Peptide with targeting and/or antimicrobial activity)", "Target(s)": "S. mutans; also recorded: E. coli"}
{"substance": "PF-568 (TQAVQVKTAQAQQQ; Peptide with targeting and/or antimicrobial activity)", "Target(s)": "S. epidermidis"}
{"substance": "PF-570 (KKFPTEESHIQAVLEFKKLTEHPSG; Peptide with targeting and/or antimicrobial activity)", "Target(s)": "S. pneumoniae; also recorded: C. jeikeium"}
{"tested_on": "microorganisms (e.g., bacteria, yeasts, fungi)", "experiment": "Targeting peptide binding to target microorganisms (Table 3)", "conditions": "peptide binding in aqueous buffers varied by peptide solubility; preferably 1x PBS"}
{"substance": "PF-641 (SWKCHHLAIGGSWKCHHLAI; Peptide with targeting and/or antimicrobial activity)", "Target(s) (microorganisms bound by the targeting peptide)": "S. epidermidis and M. luteus and E. coli and C. albicans and MRSA and E. faecalis and C. jeikeium and C. jejuni"}
{"substance": "PF-648 (ARRYPAAGS; Peptide with targeting and/or antimicrobial activity)", "Target(s) (microorganisms bound by the targeting peptide)": "S. mutans; also recorded: E. coli"}
{"substance": "PF-650 (IRSDQPGRQSRSSPRWPTGAGRHR; Peptide with targeting and/or antimicrobial activity)", "Target(s) (microorganisms bound by the targeting peptide)": "Mycobacteria spp"}
{"substance": "PF-669 (RADRIESYPADGDRVITLWRNPYR; Peptide with targeting and/or antimicrobial activity)", "Target(s) (microorganisms bound by the targeting peptide)": "Mycobacteria spp"}
{"substance": "PF-671 (TVSAFRTVH; Peptide with targeting and/or antimicrobial activity)", "Target(s) (microorganisms bound by the targeting peptide)": "S. mutans; also recorded: E. coli"}
{"substance": "PF-673 (VRRLRM; Peptide with targeting and/or antimicrobial activity)", "Target(s) (microorganisms bound by the targeting peptide)": "S. mutans; also recorded: E. coli"}
{"substance": "PF-674 (DGCDSEPALTYR; Peptide with targeting and/or antimicrobial activity)", "Target(s) (microorganisms bound by the targeting peptide)": "S. mutans; also recorded: E. coli"}
{"substance": "PF-676 (AEYRGL; Peptide with targeting and/or antimicrobial activity)", "Target(s) (microorganisms bound by the targeting peptide)": "S. mutans; also recorded: E. coli"}
{"substance": "PF-678 (RDRRWTRRDMYDWLESARV; Peptide with targeting and/or antimicrobial activity)", "Target(s) (microorganisms bound by the targeting peptide)": "Mycobacteria spp"}
{"substance": "PF-679 (CRARFIRR; Peptide with targeting and/or antimicrobial activity)", "Target(s) (microorganisms bound by the targeting peptide)": "S. mutans; also recorded: E. coli"}
{"substance": "PF-689 (SAPSG; Peptide with targeting and/or antimicrobial activity)", "Target(s) (microorganisms bound by the targeting peptide)": "S. mutans; also recorded: E. coli"}
{"substance": "PF-701 (PRGAQSGHG; Peptide with targeting and/or antimicrobial activity)", "Target(s) (microorganisms bound by the targeting peptide)": "S. mutans"}
{"substance": "PF-703 (MTTVDNIVGLVIAVALMAFLFAALLFPEKF; Peptide with targeting and/or antimicrobial activity)", "Target(s) (microorganisms bound by the targeting peptide)": "Mycobacteria spp"}
{"substance": "PF-705 (GEEEGTVAD; Peptide with targeting and/or antimicrobial activity)", "Target(s) (microorganisms bound by the targeting peptide)": "S. mutans; also recorded: E. coli"}
{"substance": "PF-706 (LGYGAWIGCGLGLNGFHRID; Peptide with targeting and/or antimicrobial activity)", "Target(s) (microorganisms bound by the targeting peptide)": "L. pneumophila"}
{"substance": "PF-707 (IDPESIVTTNNKQDNVDEQ; Peptide with targeting and/or antimicrobial activity)", "Target(s) (microorganisms bound by the targeting peptide)": "S. mutans; also recorded: E. coli"}
{"substance": "PF-709 (NKKHSPMD; Peptide with targeting and/or antimicrobial activity)", "Target(s) (microorganisms bound by the targeting peptide)": "S. mutans"}
{"substance": "PF-711 (KTAGPTGTIYKTN; Peptide with targeting and/or antimicrobial activity)", "Target(s) (microorganisms bound by the targeting peptide)": "S. mutans"}
{"substance": "PF-712 (QIYRHVHKVQAKSANLRLY; Peptide with targeting and/or antimicrobial activity)", "Target(s) (microorganisms bound by the targeting peptide)": "S. mutans; also recorded: E. coli"}
{"substance": "PF-714 (FVVTQRMLRMYKK; Peptide with targeting and/or antimicrobial activity)", "Target(s) (microorganisms bound by the targeting peptide)": "L. pneumophila"}
{"substance": "PF-716 (HGENHHHKSDEKDNDSSEKKD; Peptide with targeting and/or antimicrobial activity)", "Target(s) (microorganisms bound by the targeting peptide)": "S. mutans"}
{"substance": "PF-717 (PQSEVTFENIYAPKANGGGLYGI; Peptide with targeting and/or antimicrobial activity)", "Target(s) (microorganisms bound by the targeting peptide)": "E. coli"}
{"substance": "PF-720 (SLDMGK; Peptide with targeting and/or antimicrobial activity)", "Target(s) (microorganisms bound by the targeting peptide)": "S. mutans"}
{"substance": "PF-724 (CYRFLTPKRPTRIS; Peptide with targeting and/or antimicrobial activity)", "Target(s) (microorganisms bound by the targeting peptide)": "L. pneumophila"}
{"substance": "PF-727 (AYARCRHDYPFTLGQMQTH; Peptide with targeting and/or antimicrobial activity)", "Target(s) (microorganisms bound by the targeting peptide)": "S. mutans; also recorded: E. coli"}
{"substance": "PF-728 (AIGQEQDRREYYYYSGYPYYY; Peptide with targeting and/or antimicrobial activity)", "Target(s) (microorganisms bound by the targeting peptide)": "S. mutans; also recorded: E. coli"}
{"substance": "PF-731 (RHKLIRLPLSESVFCFLNNPKI; Peptide with targeting and/or antimicrobial activity)", "Target(s) (microorganisms bound by the targeting peptide)": "L. pneumophila"}
{"substance": "PF-732 (DRPSQTTHHTLSSSRITGPS; Peptide with targeting and/or antimicrobial activity)", "Target(s) (microorganisms bound by the targeting peptide)": "E. coli"}
{"substance": "PF-733 (VISRQMGSEAVLELFIIM; Peptide with targeting and/or antimicrobial activity)", "Target(s) (microorganisms bound by the targeting peptide)": "S. mutans; also recorded: E. coli"}
{"substance": "PF-735 (YDPLFPNDKN; Peptide with targeting and/or antimicrobial activity)", "Target(s) (microorganisms bound by the targeting peptide)": "S. mutans; also recorded: E. coli"}
{"substance": "PF-750 (AESSPAKTTA; Peptide with targeting and/or antimicrobial activity)", "Target(s) (microorganisms bound by the targeting peptide)": "M. luteus; also recorded: C. jeikeium"}
{"substance": "PF-751 (AESSPAQETT; Peptide with targeting and/or antimicrobial activity)", "Target(s) (microorganisms bound by the targeting peptide)": "S. epidermidis; also recorded: E. coli; also recorded: C. albicans; also recorded: C. jeikeium"}
{"substance": "PF-765 (YLYWEVEHKPIIAKRDAYYAQLRKQKEIEEGA; Peptide with targeting and/or antimicrobial activity)", "Target(s) (microorganisms bound by the targeting peptide)": "S. epidermidis and M. luteus and E. coli and MRSA and E. faecalis and C. jeikeium"}
{"substance": "PF-766 (DAYYAQLRKQKEIEEGA; Peptide with targeting and/or antimicrobial activity)", "Target(s) (microorganisms bound by the targeting peptide)": "S. epidermidis and M. luteus and C. albicans and MRSA and E. faecalis and C. jeikeium"}
{"substance": "PF-767 (DGKQGEPVALKPTDN; Peptide with targeting and/or antimicrobial activity)", "Target(s) (microorganisms bound by the targeting peptide)": "S. epidermidis and M. luteus and E. coli and MRSA and S. pneumoniae and E. faecalis and C. jeikeium"}
{"substance": "PF-768 (GFRGGKRGGARG; Peptide with targeting and/or antimicrobial activity)", "Target(s) (microorganisms bound by the targeting peptide)": "S. epidermidis; also recorded: S. pneumoniae; also recorded: E. faecalis; also recorded: C. jeikeium"}
{"substance": "PF-772 (TKESSS; Peptide with targeting and/or antimicrobial activity)", "Target(s) (microorganisms bound by the targeting peptide)": "S. epidermidis and C. albicans and MRSA and S. pneumoniae and C. jeikeium"}
{"substance": "PF-773 (TLKESK; Peptide with targeting and/or antimicrobial activity)", "Target(s) (microorganisms bound by the targeting peptide)": "S. epidermidis; also recorded: C. albicans; also recorded: C. jeikeium"}
{"substance": "PF-777 (PGADGKLAEASAAIARLVRS; Peptide with targeting and/or antimicrobial activity)", "Target(s) (microorganisms bound by the targeting peptide)": "Mycobacteria spp."}
{"substance": "PF-778 (MNLILTAHGT; Peptide with targeting and/or antimicrobial activity)", "Target(s) (microorganisms bound by the targeting peptide)": "Mycobacteria spp."}
{"substance": "PF-779 (IYGDFFNFYLCDISLKVNGLQPGGPVRTVKLFGQPTGRCTPQ; Peptide with targeting and/or antimicrobial activity)", "Target(s) (microorganisms bound by the targeting peptide)": "Mycobacteria spp."}
{"substance": "PF-780 (AVYDALVALAAAEHRAELATRDARAKDTYEKIGVHVVVAA; Peptide with targeting and/or antimicrobial activity)", "Target(s) (microorganisms bound by the targeting peptide)": "Mycobacteria spp."}
{"substance": "PF-781 (PLVVVNHRRAERSRG; Peptide with targeting and/or antimicrobial activity)", "Target(s) (microorganisms bound by the targeting peptide)": "Mycobacteria spp."}
{"substance": "PF-782 (TGPRRGIDLTSNRALSEVLDEGLELNSRK; Peptide with targeting and/or antimicrobial activity)", "Target(s) (microorganisms bound by the targeting peptide)": "Mycobacteria spp."}
{"substance": "PF-783 (FTSEVRGVFTYRVNKAGLITNMRGYWNLDMMTFGNQE; Peptide with targeting and/or antimicrobial activity)", "Target(s) (microorganisms bound by the targeting peptide)": "Mycobacteria spp."}
